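Tested at 5 concentrations; 48 h exposure; 96-well plates; endpoints linearly interpolated, else capped at highest concentration. TGI denotes the concentration required for complete inhibition of growth.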
The compounds below were run on OVCAR-8 ovarian (assay: NCI-60 cell line screen, 48 h).
For `COC(=O)C1CCCN1C(=O)C(Cc1cn(S(=O)(=O)c2ccc(C)cc2)cn1)NC(=O)OC(C)(C)C` (configuration not stated), the TGI was over 100 µM.
With `CC(=O)O[C@]12CCCCCC1C1(O)C(O)CCCC[C@H]12` (some centres not stated) the TGI was over 100 µM.
`O=c1c(C(c2ccc(Cl)cc2)c2c(O)c3ccccc3n(-c3ccccc3)c2=O)c(O)c2ccccc2n1-c1ccccc1` showed a TGI of over 100 µM.

The compounds below were run on RPMI-8226 leukemia (assay: NCI-60 cell line screen, 48 h).
`COc1c(C(C)C)cc2c3c1OC(=O)[C@@]31CCCC(C)(C)C1CC2` (some centres not stated) was tested, and the TGI was 59.8 µM.
For `OCc1ccc(C2CC(c3ccco3)=NN2c2ccccc2)o1` (configuration not stated), the TGI was over 100 µM.
`COc1ccc(C2COc3cc(O)c(O)cc3C2)cc1` (configuration not stated) gave a TGI of 25.2 µM.
With `COc1cccc(/C=N/n2c(C)n[nH]c2=O)c1` the TGI was over 100 µM.
`CC1CCCC(CC(=O)O)(CC(=O)O)C1` (configuration not stated) was tested, and the TGI was over 100 µM.
In the case of `COc1cc2c3c(c1OC)C1(C=CC(=O)C=C1)C[C@H]3N(C)CC2`, the TGI is reported as over 100 µM.
In the case of `Cc1ccc(O)c(-c2cscn2)c1`, the TGI is reported as over 100 µM.
Compound `O=C(CN(c1ccccc1)c1ccccc1)n1nnc2ccccc21` has a TGI of over 100 µM.
In the case of `CSc1sc2ccccc2[s+]1`, the TGI is reported as over 100 µM.
`Cc1ccc(S(=O)(=O)C(C#N)c2nc3ccccc3nc2-n2ccnc2)cc1` (configuration not stated) gave a TGI of over 100 µM.
Compound `COC(=O)C1CCCN1C(=O)C(Cc1cn(S(=O)(=O)c2ccc(C)cc2)cn1)NC(=O)OC(C)(C)C` (configuration not stated) has a TGI of over 100 µM.
With `CC(=O)O[C@]12CCCCCC1C1(O)C(O)CCCC[C@H]12` (some centres not stated) the TGI was over 100 µM.
`O=c1c(C(c2ccc(Cl)cc2)c2c(O)c3ccccc3n(-c3ccccc3)c2=O)c(O)c2ccccc2n1-c1ccccc1` gave a TGI of 69.4 µM.

The compounds below were run on SK-MEL-2 melanoma (assay: NCI-60 cell line screen, 48 h).
For `COc1c(C(C)C)cc2c3c1OC(=O)[C@@]31CCCC(C)(C)C1CC2` (some centres not stated), the TGI was 84 µM.
In the case of `OCc1ccc(C2CC(c3ccco3)=NN2c2ccccc2)o1` (configuration not stated), the TGI is reported as over 100 µM.
`COc1ccc(C2COc3cc(O)c(O)cc3C2)cc1` (configuration not stated) showed a TGI of 146 µM.
`COc1cccc(/C=N/n2c(C)n[nH]c2=O)c1` was tested, and the TGI was over 100 µM.
Work on `CC1CCCC(CC(=O)O)(CC(=O)O)C1` (configuration not stated) yielded a TGI of over 100 µM.
`COc1cc2c3c(c1OC)C1(C=CC(=O)C=C1)C[C@H]3N(C)CC2` showed a TGI of over 100 µM.
`Cc1ccc(O)c(-c2cscn2)c1` was tested, and the TGI was over 100 µM.
`O=C(CN(c1ccccc1)c1ccccc1)n1nnc2ccccc21` gave a TGI of 96 µM.
`CSc1sc2ccccc2[s+]1` was tested, and the TGI was over 100 µM.
With `Cc1ccc(S(=O)(=O)C(C#N)c2nc3ccccc3nc2-n2ccnc2)cc1` (configuration not stated) the TGI was over 100 µM.
In the case of `COC(=O)C1CCCN1C(=O)C(Cc1cn(S(=O)(=O)c2ccc(C)cc2)cn1)NC(=O)OC(C)(C)C` (configuration not stated), the TGI is reported as over 100 µM.
Work on `CC(=O)O[C@]12CCCCCC1C1(O)C(O)CCCC[C@H]12` (some centres not stated) yielded a TGI of over 100 µM.
`O=c1c(C(c2ccc(Cl)cc2)c2c(O)c3ccccc3n(-c3ccccc3)c2=O)c(O)c2ccccc2n1-c1ccccc1` showed a TGI of 86.1 µM.

The compounds below were run on SK-MEL-5 melanoma (assay: NCI-60 cell line screen, 48 h).
`COc1c(C(C)C)cc2c3c1OC(=O)[C@@]31CCCC(C)(C)C1CC2` (some centres not stated) was tested, and the TGI was 28.4 µM.
With `OCc1ccc(C2CC(c3ccco3)=NN2c2ccccc2)o1` (configuration not stated) the TGI was over 100 µM.
`COc1ccc(C2COc3cc(O)c(O)cc3C2)cc1` (configuration not stated) showed a TGI of 72.4 µM.
Work on `CC1CCCC(CC(=O)O)(CC(=O)O)C1` (configuration not stated) yielded a TGI of over 100 µM.
`COc1cc2c3c(c1OC)C1(C=CC(=O)C=C1)C[C@H]3N(C)CC2` showed a TGI of over 100 µM.
In the case of `Cc1ccc(O)c(-c2cscn2)c1`, the TGI is reported as over 100 µM.
For `O=C(CN(c1ccccc1)c1ccccc1)n1nnc2ccccc21`, the TGI was 69.3 µM.
With `CSc1sc2ccccc2[s+]1` the TGI was over 100 µM.
With `Cc1ccc(S(=O)(=O)C(C#N)c2nc3ccccc3nc2-n2ccnc2)cc1` (configuration not stated) the TGI was over 100 µM.
With `COC(=O)C1CCCN1C(=O)C(Cc1cn(S(=O)(=O)c2ccc(C)cc2)cn1)NC(=O)OC(C)(C)C` (configuration not stated) the TGI was over 100 µM.
With `CC(=O)O[C@]12CCCCCC1C1(O)C(O)CCCC[C@H]12` (some centres not stated) the TGI was over 100 µM.
In the case of `O=c1c(C(c2ccc(Cl)cc2)c2c(O)c3ccccc3n(-c3ccccc3)c2=O)c(O)c2ccccc2n1-c1ccccc1`, the TGI is reported as over 100 µM.

Each compound was assayed on SK-OV-3 ovarian (assay: NCI-60 cell line screen, 48 h).
With `COc1c(C(C)C)cc2c3c1OC(=O)[C@@]31CCCC(C)(C)C1CC2` (some centres not stated) the TGI was 76.1 µM.
For `COc1ccc(C2COc3cc(O)c(O)cc3C2)cc1` (configuration not stated), the TGI was 163 µM.
`COc1cccc(/C=N/n2c(C)n[nH]c2=O)c1` showed a TGI of over 100 µM.
For `COc1cc2c3c(c1OC)C1(C=CC(=O)C=C1)C[C@H]3N(C)CC2`, the TGI was over 100 µM.
With `Cc1ccc(O)c(-c2cscn2)c1` the TGI was over 100 µM.
`O=C(CN(c1ccccc1)c1ccccc1)n1nnc2ccccc21` was tested, and the TGI was over 100 µM.
Work on `CSc1sc2ccccc2[s+]1` yielded a TGI of over 100 µM.
Compound `Cc1ccc(S(=O)(=O)C(C#N)c2nc3ccccc3nc2-n2ccnc2)cc1` (configuration not stated) has a TGI of over 100 µM.
Compound `CC(=O)O[C@]12CCCCCC1C1(O)C(O)CCCC[C@H]12` (some centres not stated) has a TGI of over 100 µM.
With `O=c1c(C(c2ccc(Cl)cc2)c2c(O)c3ccccc3n(-c3ccccc3)c2=O)c(O)c2ccccc2n1-c1ccccc1` the TGI was over 100 µM.

Each compound was assayed on TK-10 renal (assay: NCI-60 cell line screen, 48 h).
`COc1c(C(C)C)cc2c3c1OC(=O)[C@@]31CCCC(C)(C)C1CC2` (some centres not stated) was tested, and the TGI was 99.8 µM.
Work on `OCc1ccc(C2CC(c3ccco3)=NN2c2ccccc2)o1` (configuration not stated) yielded a TGI of over 100 µM.
For `CC1CCCC(CC(=O)O)(CC(=O)O)C1` (configuration not stated), the TGI was over 100 µM.
Compound `COc1cc2c3c(c1OC)C1(C=CC(=O)C=C1)C[C@H]3N(C)CC2` has a TGI of over 100 µM.
For `Cc1ccc(O)c(-c2cscn2)c1`, the TGI was over 100 µM.
Compound `O=C(CN(c1ccccc1)c1ccccc1)n1nnc2ccccc21` has a TGI of over 100 µM.
Compound `CSc1sc2ccccc2[s+]1` has a TGI of over 100 µM.
`Cc1ccc(S(=O)(=O)C(C#N)c2nc3ccccc3nc2-n2ccnc2)cc1` (configuration not stated) gave a TGI of over 100 µM.
`COC(=O)C1CCCN1C(=O)C(Cc1cn(S(=O)(=O)c2ccc(C)cc2)cn1)NC(=O)OC(C)(C)C` (configuration not stated) gave a TGI of over 100 µM.
`CC(=O)O[C@]12CCCCCC1C1(O)C(O)CCCC[C@H]12` (some centres not stated) was tested, and the TGI was over 100 µM.
Compound `O=c1c(C(c2ccc(Cl)cc2)c2c(O)c3ccccc3n(-c3ccccc3)c2=O)c(O)c2ccccc2n1-c1ccccc1` has a TGI of over 100 µM.

Each compound was assayed on U251 CNS (assay: NCI-60 cell line screen, 48 h).
`COc1c(C(C)C)cc2c3c1OC(=O)[C@@]31CCCC(C)(C)C1CC2` (some centres not stated) was tested, and the TGI was over 100 µM.
`OCc1ccc(C2CC(c3ccco3)=NN2c2ccccc2)o1` (configuration not stated) was tested, and the TGI was over 100 µM.
`COc1ccc(C2COc3cc(O)c(O)cc3C2)cc1` (configuration not stated) was tested, and the TGI was 77.8 µM.
`COc1cccc(/C=N/n2c(C)n[nH]c2=O)c1` gave a TGI of over 100 µM.
Compound `CC1CCCC(CC(=O)O)(CC(=O)O)C1` (configuration not stated) has a TGI of over 100 µM.
Compound `COc1cc2c3c(c1OC)C1(C=CC(=O)C=C1)C[C@H]3N(C)CC2` has a TGI of over 100 µM.
`O=C(CN(c1ccccc1)c1ccccc1)n1nnc2ccccc21` was tested, and the TGI was over 100 µM.
`CSc1sc2ccccc2[s+]1` was tested, and the TGI was over 100 µM.
`Cc1ccc(S(=O)(=O)C(C#N)c2nc3ccccc3nc2-n2ccnc2)cc1` (configuration not stated) gave a TGI of over 100 µM.
Compound `COC(=O)C1CCCN1C(=O)C(Cc1cn(S(=O)(=O)c2ccc(C)cc2)cn1)NC(=O)OC(C)(C)C` (configuration not stated) has a TGI of over 100 µM.
`CC(=O)O[C@]12CCCCCC1C1(O)C(O)CCCC[C@H]12` (some centres not stated) gave a TGI of over 100 µM.
Work on `O=c1c(C(c2ccc(Cl)cc2)c2c(O)c3ccccc3n(-c3ccccc3)c2=O)c(O)c2ccccc2n1-c1ccccc1` yielded a TGI of over 100 µM.

The compounds below were run on UACC-257 melanoma (assay: NCI-60 cell line screen, 48 h).
Compound `COc1c(C(C)C)cc2c3c1OC(=O)[C@@]31CCCC(C)(C)C1CC2` (some centres not stated) has a TGI of 54.1 µM.
In the case of `COc1ccc(C2COc3cc(O)c(O)cc3C2)cc1` (configuration not stated), the TGI is reported as 181 µM.
`COc1cccc(/C=N/n2c(C)n[nH]c2=O)c1` gave a TGI of over 100 µM.
Compound `CC1CCCC(CC(=O)O)(CC(=O)O)C1` (configuration not stated) has a TGI of over 100 µM.
`COc1cc2c3c(c1OC)C1(C=CC(=O)C=C1)C[C@H]3N(C)CC2` showed a TGI of over 100 µM.
Work on `Cc1ccc(O)c(-c2cscn2)c1` yielded a TGI of over 100 µM.
In the case of `O=C(CN(c1ccccc1)c1ccccc1)n1nnc2ccccc21`, the TGI is reported as over 100 µM.
Compound `CSc1sc2ccccc2[s+]1` has a TGI of over 100 µM.
Compound `Cc1ccc(S(=O)(=O)C(C#N)c2nc3ccccc3nc2-n2ccnc2)cc1` (configuration not stated) has a TGI of over 100 µM.
`COC(=O)C1CCCN1C(=O)C(Cc1cn(S(=O)(=O)c2ccc(C)cc2)cn1)NC(=O)OC(C)(C)C` (configuration not stated) gave a TGI of over 100 µM.
With `CC(=O)O[C@]12CCCCCC1C1(O)C(O)CCCC[C@H]12` (some centres not stated) the TGI was over 100 µM.

These compounds were tested on UACC-62 melanoma (assay: NCI-60 cell line screen, 48 h).
`COc1c(C(C)C)cc2c3c1OC(=O)[C@@]31CCCC(C)(C)C1CC2` (some centres not stated) showed a TGI of over 100 µM.
For `OCc1ccc(C2CC(c3ccco3)=NN2c2ccccc2)o1` (configuration not stated), the TGI was over 100 µM.
`COc1ccc(C2COc3cc(O)c(O)cc3C2)cc1` (configuration not stated) gave a TGI of 46.3 µM.
`COc1cccc(/C=N/n2c(C)n[nH]c2=O)c1` was tested, and the TGI was over 100 µM.
Compound `CC1CCCC(CC(=O)O)(CC(=O)O)C1` (configuration not stated) has a TGI of over 100 µM.
`COc1cc2c3c(c1OC)C1(C=CC(=O)C=C1)C[C@H]3N(C)CC2` showed a TGI of over 100 µM.
`Cc1ccc(O)c(-c2cscn2)c1` was tested, and the TGI was over 100 µM.
In the case of `O=C(CN(c1ccccc1)c1ccccc1)n1nnc2ccccc21`, the TGI is reported as over 100 µM.
For `CSc1sc2ccccc2[s+]1`, the TGI was over 100 µM.
Work on `COC(=O)C1CCCN1C(=O)C(Cc1cn(S(=O)(=O)c2ccc(C)cc2)cn1)NC(=O)OC(C)(C)C` (configuration not stated) yielded a TGI of over 100 µM.
`CC(=O)O[C@]12CCCCCC1C1(O)C(O)CCCC[C@H]12` (some centres not stated) gave a TGI of over 100 µM.
For `O=c1c(C(c2ccc(Cl)cc2)c2c(O)c3ccccc3n(-c3ccccc3)c2=O)c(O)c2ccccc2n1-c1ccccc1`, the TGI was over 100 µM.
